Assay results taken from patent US10858365B2, “Triazolo-pyrimidine compounds and uses thereof” (Dizal (Jiangsu) Pharmaceutical Co., Ltd., priority 2018, dated 2020).

Tests used:
Assay type in all cases: cell-based
hA2a = hA2a (Homo sapiens (Human), UniProt P29274); test: cAMP inhibition assay in hA2a/CHO cells; conditions: adenosine stimulation, read-out: cAMP & FLIPR IC50 (nM) hA2a
Method: (§1) hA2a/CHO, hA2b/CHO and mA2a/CHO (Genscript) were plated at 5×10^3 cells/well into 384-well polystyrene plates at the day of experiment. Compounds were pre-incubated with cells for 30 min at 37° C., 5% CO2. Then […] adenosine was added to the cells and incubated for 30 min at 37° C., 5% CO2. Detection reagent (CISBIO) was added and the plates were incubated for 60 min at room temperature. The signal was captured by Envision.
FLIPR™ and cAMP inhibition activities of exemplary compounds in different adenosine receptor over-expressing cell lines are shown in Table 4 below.

hA2b = hA2b (Homo sapiens (Human), UniProt P29275); test: cAMP inhibition assay in hA2b/CHO cells; conditions: adenosine stimulation, read-out: cAMP & FLIPR IC50 (nM) hA2b
Sequence of hA2b (P29275 whole entry): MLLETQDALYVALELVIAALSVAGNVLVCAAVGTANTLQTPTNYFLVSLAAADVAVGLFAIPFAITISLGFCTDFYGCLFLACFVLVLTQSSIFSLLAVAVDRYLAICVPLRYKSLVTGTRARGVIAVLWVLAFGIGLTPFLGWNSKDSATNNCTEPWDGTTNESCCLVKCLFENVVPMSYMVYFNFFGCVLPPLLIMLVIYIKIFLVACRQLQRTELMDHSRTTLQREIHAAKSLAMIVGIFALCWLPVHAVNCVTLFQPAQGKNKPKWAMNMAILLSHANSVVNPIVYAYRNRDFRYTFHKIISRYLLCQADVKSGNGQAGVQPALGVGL
Method: as §1

mA2a = mA2a (Mus musculus (Mouse), UniProt Q60613); test: cAMP inhibition assay in mA2a/CHO cells; conditions: adenosine stimulation, read-out: cAMP & FLIPR IC50 (nM) mA2a
Sequence of mA2a (Q60613 whole entry): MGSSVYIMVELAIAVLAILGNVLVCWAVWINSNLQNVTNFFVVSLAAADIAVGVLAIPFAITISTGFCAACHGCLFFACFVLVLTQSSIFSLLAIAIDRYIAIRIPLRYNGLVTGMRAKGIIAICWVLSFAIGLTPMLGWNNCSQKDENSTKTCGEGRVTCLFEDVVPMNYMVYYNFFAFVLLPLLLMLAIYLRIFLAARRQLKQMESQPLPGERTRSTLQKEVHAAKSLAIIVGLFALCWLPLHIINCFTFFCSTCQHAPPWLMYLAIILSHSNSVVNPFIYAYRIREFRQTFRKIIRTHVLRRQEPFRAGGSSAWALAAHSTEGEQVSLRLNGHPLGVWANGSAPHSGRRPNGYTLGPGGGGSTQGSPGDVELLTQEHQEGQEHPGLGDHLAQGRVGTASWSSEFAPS
Method: as §1

hA1 = hA1 (Homo sapiens (Human), UniProt P30542); test: FLIPR inhibition assay in hADORA1/CHO (hA1 expressing) cells; conditions: hADORA1/CHO cells, FLIPR calcium, adenosine stimulation; read-out: cAMP & FLIPR IC50 (nM) hA1
Sequence of hA1 (P30542 whole entry): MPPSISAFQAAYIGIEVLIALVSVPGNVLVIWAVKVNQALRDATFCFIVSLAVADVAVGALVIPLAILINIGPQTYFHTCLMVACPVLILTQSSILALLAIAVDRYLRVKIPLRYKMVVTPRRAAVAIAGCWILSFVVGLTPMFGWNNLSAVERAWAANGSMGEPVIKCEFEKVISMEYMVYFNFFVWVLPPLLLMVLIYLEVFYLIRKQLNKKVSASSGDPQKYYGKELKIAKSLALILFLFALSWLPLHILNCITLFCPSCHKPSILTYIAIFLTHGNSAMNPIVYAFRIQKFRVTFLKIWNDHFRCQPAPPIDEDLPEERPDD
Method: hADORA1/CHO (hA1 expressing) cells (Genscript) were plated at 1×10^4 cells/well into 384-well polystyrene plates one day before starting the experiment. On the day of experiment, the supernatant was discard and replaced with 40 µL of dye (FLIPR calcium 5 Assay Kit) per well and the plates were incubated for 60 mins at 37° C. plus 5% CO2. Then testing compounds were added at different concentrations for FLIPR™ inhibition assay. After a 400 s incubation with compound, […] adenosine was added into the cells, and the signal was captured by FLIPR.

Sequence of hA2a (P29274 whole entry): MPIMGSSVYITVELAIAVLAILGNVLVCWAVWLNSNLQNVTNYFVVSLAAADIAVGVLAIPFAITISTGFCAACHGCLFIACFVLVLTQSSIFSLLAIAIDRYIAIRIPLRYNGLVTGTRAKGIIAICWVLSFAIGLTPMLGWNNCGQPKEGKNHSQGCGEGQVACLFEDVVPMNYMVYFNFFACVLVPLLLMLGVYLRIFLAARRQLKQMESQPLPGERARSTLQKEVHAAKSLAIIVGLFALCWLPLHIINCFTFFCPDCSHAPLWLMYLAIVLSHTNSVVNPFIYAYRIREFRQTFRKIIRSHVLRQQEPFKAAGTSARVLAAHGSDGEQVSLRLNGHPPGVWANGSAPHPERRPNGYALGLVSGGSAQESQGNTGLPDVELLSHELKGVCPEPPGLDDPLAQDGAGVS

Row | Compound | IC50 (hA2a) | IC50 (hA2b) | IC50 (mA2a) | IC50 (hA1)
1 | Cn1cc(-c2c(-c3ccc(F)cc3)nc(N)n3nc(Cc4nccs4)nc23)ccc1=O [Example 42, 5-[5-amino-7-(4-fluorophenyl)-2-[(1,3-thiazol-2-yl)methyl]-[1,2,4]triazolo[1,5-c]pyrimidin-8-yl]-1-methyl-1,2-dihydropyridin-2-one] | 7.9 nM | 206 nM | 13 nM | 6.6 nM
2 | Nc1nc(-c2ccc(F)cc2)c(-c2ccc3nc[nH]c3c2)c2nc(Cc3ncccc3F)nn12 [Example 75, 8-(1H-benzo[d]imidazol-6-yl)-7-(4-fluorophenyl)-2-((3-fluoropyridin-2-yl)methyl)-[1,2,4]triazolo [l,5-c]pyrimidin-5-amine] | 1.7 nM | 38 nM | 17 nM | 31 nM
3 | Cn1cc(-c2c(-c3ccccc3Cl)nc(N)n3nc(Cc4ncccc4F)nc23)ccc1=O [Example 78, 5-(5-amino-7-(2-chlorophenyl)-2-((3-fluoropyridin-2-yl)methyl)-[1,2,4]triazolo[1,5-c]pyrimidin-8-yl)-l-methylpyridin-2(1H)-one] | 135 nM | 1260 nM | 324 nM | 1160 nM
4 | Cn1cc(-c2c(-c3ccc(F)cc3)nc(N)n3nc(Cc4cccc(N)n4)nc23)ccc1=O [Example 35, 5-(5-amino-2-((6-aminopyridin-2-yl)methyl)-7-(4-fluorophenyl)-[1,2,4]triazolo[1,5-c]pyrimidin-8-yl)-1-methylpyridin-2(1H)-one] | 27 nM | 173 nM | 23 nM | 35 nM
5 | Cc1cc(-c2c(-c3ncco3)nc(N)n3nc(Cc4ncccc4F)nc23)cc(Cl)n1 [Example 82, 8-(2-chloro-6-methylpyridin-4-yI)-2-((3-fluoropyridin-2-yl)methyl)-7-(oxazol-2-yl)-[l,2,4]triazolo [1,5-c]pyrimidin-5-amine] | 25 nM | 2910 nM | 63 nM | 2640 nM
6 | Cc1cc(-c2c(-c3ccc(F)cc3)nc(N)n3nc(Cc4cccc(N(C)C)n4)nc23)ccn1 [Example 17, 2-((6-(dimethylamino)pyridin-2-yl)methyl)-7-(4-fluorophenyl)-8-(2-methylpyridin-4-yl)-[1,2,4]triazolo[1,5-f]pyrimidin-5-amine] | 43 nM | 4790 nM | 51 nM | 22 nM
7 | COCCc1nc2c(-c3ccc4ncc(C)n4c3)c(-c3ccc(F)cc3)nc(N)n2n1 [Example 114, 7-(4-fluorophenyl)-2-(2-methoxyethyl)-8-(3-methylimidazo[1,2-a]pyridin-6-yl)-[1,2,4]triazolo[1,5-c]pyrimidin-5-amine] | 0.2 nM | 40.9 nM | 0.4 nM | 5.7 nM
8 | Cn1cc(-c2c(-c3ccc(Cl)cc3)nc(N)n3nc(Cc4ncccc4F)nc23)ccc1=O [Example 56, 5-(5-amino-7-(4-chlorophenyl)-2-((3-fluoropyridin-2-yl)methyl)-[1,2,4]triazolo[1,5-c]pyrimidin-8-yl)-l-methylpyridin-2(1H)-one] | 22 nM | 142 nM | 36 nM | 34 nM
9 | Nc1cc(-c2c(-c3ccc(F)cc3)nc(N)n3nc(Cc4ncccc4F)nc23)ccn1 [Example 38, 8-(2-aminopyridin-4-yl)-7-(4-fluorophenyl)-2-((3-fIuoropyridin-2-yl)methyl)-[1,2,4]triazolo[1,5-c]pyrmidin-5-amine] | 41 nM | 38 nM | 263 nM | 8.6 nM
10 | Cc1nc(Cc2nc3c(-c4ccc5nccn5c4)c(-c4ccc(F)cc4)nc(N)n3n2)cs1 [Example 68, 7-(4-fluorophenyl)-8-[imidazo[1,2-a]pyridin-6-yl]-2-[(2-methyl-1,3-thiazol-4-yl)methyl]-[1,2,4]triazolo[1,5-c]pyrimidin-5-amine] | 3.2 nM | 614 nM | 12 nM | 29 nM
11 | Cn1cc(-c2c(-c3ccc(F)c(F)c3)nc(N)n3nc(Cc4ncccc4F)nc23)ccc1=O [Example 39, 5-[5-amino-7-(3,4-difluorophenyl)-2-[(3-fluoropyridin-2-yl)methyl]-[1,2,4]triazolo[1,5-c]pyrimidin-8-yl]-1-methyl-1,2-dihydropyridin-2-one] | 18 nM | 235 nM | 39 nM | 15 nM
12 | Cn1cc(-c2c(-c3ccc(C#N)cc3)nc(N)n3nc(Cc4ncccc4F)nc23)ccc1=O [Example 57, 4-(5-amino-2-((3-fluoropyridin-2-yl)methyl)-8-(1-methyl-6-oxo-1,6-dihydropyridin-3-yl)-[1,2,4]triazolo[l,5-c]pyrimidin-7-yl)benzonitrile] | 120 nM | 399 nM | 219 nM | 76 nM
13 | Nc1nc(-c2ccc(F)cc2)c(-c2ccc3ncccc3c2)c2nc(Cc3ncccc3F)nn12 [Example 89, 7-(4-fluorophenyl)-2-[(3-fluoropyridin-2-yl)methyl]-8-(quinolin-6-yl)-[1,2,4]triazolo[1,5-c]pyrimidin-5-amine] | 0.4 nM | 82 nM | 1.3 nM | 132 nM
14 | COc1ccccc1-c1nc(N)n2nc(Cc3ncccc3F)nc2c1-c1ccc(=O)n(C)c1 [Example 98, 5-(5-amino-2-((3-fluoropyridin-2-yl)methyl)-7-(2-methoxyphenyl)-[1,2,4]triazolo[1,5-c]pyrimidin-8-yl)-1-methylpyridin-2(1H)-one] | 88 nM | 1540 nM | 224 nM | 333 nM
15 | Cc1cnc2ccc(-c3c(-c4ccc(F)cc4)nc(N)n4nc(CC5CCOC5)nc34)cn12 (single isomer, unassigned; isomer 1) [Example 105-1, 7-(4-fluorophenyl)-8-(3-methylimidazo[1,2-a]pyridin-6-yl)-2-((tetrahydrofuran-3-yl)methyl)-[l,2, 4]triazolo[1,5-c]pyrimidin-5-amine(isomer 1)] | 0.1 nM | 47.5 nM | 1 nM | 14 nM
16 | Cn1cc(-c2nc(N)n3nc(Cc4ncccc4F)nc3c2-c2ccc(=O)n(C)c2)cn1 [Example 59, 5-(5-amino-2-((3-fluoropyridin-2-yl)methyl)-7-(1-methyl-1H-pyrazol-4-yl)-[1,2,4]triazolo[1,5-c]pyrirridin-8-yl)-l-methylpyridin-2(1H)-one] | 98 nM | 1550 nM | 179 nM | 37 nM
17 | Cn1cc(-c2c(-c3ccc(F)cc3)nc(N)n3nc(Cc4cscn4)nc23)ccc1=O [Example 58, 5-[5-amino-7-(4-fluorophenyl)-2-[(1,3-thiazol-4-yl)methyl]-[1,2,4]triazolo[1,5-c]pyrimidin-8-yl]-1-methyl-1,2-dihydropyridin-2-one] | 29 nM | 2290 nM | 47 nM | 25 nM
18 | Nc1nc(-c2ccc(F)cc2)c(-c2ccc(=O)n(C3CCOC3)c2)c2nc(Cc3c(F)cccc3F)nn12 (stereo not drawn) [Example 23, 5-(5-amino-2-(2,6-difluorobenzyl)-7-(4-fluorophenyl)-[1,2,4]triazolo[1,5-c]pyrimidin-8-yl)-1-(tetrahydrofuran-3-yl)pyridin-2(1H)-one] | 7.7 nM | 2060 nM | 2.9 nM | 26 nM
